Experimental data as given in PubChem BioAssay (NCI).
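Cells were grown in 96-well plates and exposed to each compound for 48 hours at five concentrations; endpoints were interpolated linearly between bracketing concentrations, or set to the highest concentration if not reached. GI50 = concentration required for 50% inhibition of growth. The concentration for full growth arrest is given as TGI.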

Key:
Assay in all cases: DTP human tumour cell line panel, 48 h
[1] = system: OVCAR-4 ovarian
[2] = system: NCI/ADR-RES ovarian
[3] = system: 786-0 renal
[4] = system: UACC-257 melanoma
[5] = system: NCI-H226 lung
[6] = system: ACHN renal
[7] = system: HOP-92 NSCLC
[8] = system: MDA-MB-435
[9] = system: COLO 205 colon
[10] = system: DU-145 prostate
[11] = system: MALME-3M melanoma
[12] = system: SNB-19 CNS
[13] = system: IGROV1 ovarian
[14] = system: HCT-15 colon
[15] = system: SF-268 CNS
[16] = system: UACC-62 melanoma
[17] = system: CCRF-CEM leukemia
[18] = system: PC-3 prostate
[19] = system: NCI-H522 lung
[20] = system: T-47D breast
[21] = system: SN12C renal
[22] = system: HOP-62 NSCLC
[23] = system: UO-31 renal
[24] = system: A549 NSCLC
[25] = system: SR leukemia
[26] = system: RXF 393 renal
[27] = system: LOX IMVI melanoma
[28] = system: CAKI-1 renal
[29] = system: BT-549 breast
[30] = system: NCI-H460 lung
[31] = system: K-562 leukemia
[32] = system: OVCAR-5 ovarian
[33] = system: HCC-2998 colon
[34] = system: EKVX NSCLC
[35] = system: M14 melanoma
[36] = system: HL-60(TB) leukemia
[37] = system: HT29 colon
[38] = system: MOLT-4 leukemia
[39] = system: SK-MEL-28 melanoma
[40] = system: SF-539 CNS
[41] = system: MCF7 breast
[42] = system: SK-MEL-2 melanoma
[43] = system: KM12 colon
[44] = system: RPMI-8226 leukemia
[45] = system: SF-295 CNS
[46] = system: HS 578T breast
[47] = system: TK-10 renal
[48] = system: OVCAR-8 ovarian
[49] = system: SNB-75 CNS
[50] = system: MDA-MB-231 breast
[51] = system: A498 renal
[52] = system: U251 CNS
[53] = system: HCT-116 colon
[54] = system: SK-OV-3 ovarian
[55] = system: OVCAR-3 ovarian
[56] = system: SW-620 colon
[57] = system: SK-MEL-5 melanoma

With N#Cc1c(-n2c(Br)c(Br)c3cc(Br)ccc32)[nH]c2c(Br)cc(Br)cc12 the GI50 [1] was 1.57 µM, the TGI [1] was greater than 50 µM and the GI50 [2] was 1.2 µM. For the same compound, the TGI [2] was 3.63 µM, the GI50 [3] was 1.58 µM and the TGI [3] was 8.78 µM. For the same compound, the GI50 [4] was 1.38 µM, the TGI [4] was 5.74 µM and the GI50 [5] was 1.14 µM. It also gave a TGI [5] of 3.2 µM, a GI50 [6] of 3.23 µM and a TGI [6] greater than 50 µM. The GI50 [7] was 0.383 µM, the TGI [7] was 1.9 µM and the GI50 [8] was 2.02 µM. It also gave a TGI [8] of 9.38 µM, a GI50 [9] of 1.1 µM and a TGI [9] of 3.09 µM. It also gave a GI50 [10] of 2.25 µM, a TGI [10] greater than 50 µM and a GI50 [11] of 1.68 µM. For the same compound, the TGI [11] was 7.21 µM, the GI50 [12] was 1.34 µM and the TGI [12] was greater than 50 µM. For the same compound, the GI50 [13] was 2.14 µM, the TGI [13] was greater than 50 µM and the GI50 [14] was 0.938 µM. For the same compound, the TGI [14] was greater than 18.3 µM, the GI50 [15] was 1.5 µM and the TGI [15] was greater than 50 µM. The GI50 [16] was 1.14 µM, the TGI [16] was 3.21 µM and the GI50 [17] was 1.38 µM. For the same compound, the TGI [17] was greater than 18.2 µM, the GI50 [18] was 0.982 µM and the TGI [18] was 3.99 µM. For the same compound, the GI50 [19] was 0.788 µM, the TGI [19] was 2.56 µM and the GI50 [20] was 1.09 µM. It also gave a TGI [20] of 6.48 µM, a GI50 [21] of 1.27 µM and a TGI [21] greater than 17.9 µM. It also gave a GI50 [22] of 1.38 µM, a TGI [22] of 4.14 µM and a GI50 [23] of 5.45 µM. The TGI [23] was 16.1 µM, the GI50 [24] was 1.73 µM and the TGI [24] was greater than 50 µM. For the same compound, the GI50 [25] was 1.22 µM, the TGI [25] was 6.12 µM and the GI50 [26] was 0.904 µM. For the same compound, the TGI [26] was 3.48 µM, the GI50 [27] was 5.74 µM and the TGI [27] was 15.7 µM. For the same compound, the GI50 [28] was 1.55 µM, the TGI [28] was 9.73 µM and the GI50 [29] was 1.16 µM. The TGI [29] was 2.64 µM, the GI50 [30] was 1.48 µM and the TGI [30] was 6.03 µM. For the same compound, the GI50 [31] was 0.735 µM, the TGI [31] was greater than 50 µM and the GI50 [32] was 2.95 µM. It also gave a TGI [32] greater than 50 µM, a GI50 [33] of 1.32 µM and a TGI [33] of 15.7 µM. For the same compound, the GI50 [34] was 2.04 µM, the TGI [34] was greater than 50 µM and the GI50 [35] was 1.49 µM. The TGI [35] was 7.6 µM, the GI50 [36] was 1.24 µM and the TGI [36] was 2.95 µM. The GI50 [37] was 1.48 µM, the TGI [37] was 5.23 µM and the GI50 [38] was 1.31 µM. The TGI [38] was 4.09 µM, the GI50 [39] was 1.49 µM and the TGI [39] was 8.53 µM. For the same compound, the GI50 [40] was 1.47 µM, the TGI [40] was greater than 39.6 µM and the GI50 [41] was 1.16 µM. It also gave a TGI [41] of 7.11 µM, a GI50 [42] of 0.882 µM and a TGI [42] of 1.91 µM. The GI50 [43] was 1.45 µM, the TGI [43] was 6.41 µM and the GI50 [44] was 0.859 µM. It also gave a TGI [44] of 2.56 µM, a GI50 [45] of 0.878 µM and a TGI [45] of 2 µM. It also gave a GI50 [46] of 1.06 µM, a TGI [46] of 3.56 µM and a GI50 [47] of 1.59 µM. It also gave a TGI [47] of 4.54 µM, a GI50 [48] of 1.66 µM and a TGI [48] greater than 29.4 µM. It also gave a GI50 [49] of 0.954 µM, a TGI [49] of 3.79 µM and a GI50 [50] of 1.45 µM. For the same compound, the TGI [50] was greater than 20.6 µM, the GI50 [51] was 0.767 µM and the TGI [51] was 2.4 µM. The GI50 [52] was 1.19 µM, the TGI [52] was greater than 31.4 µM and the GI50 [53] was 0.986 µM. For the same compound, the TGI [53] was 2.99 µM, the GI50 [54] was 1.41 µM and the TGI [54] was 4.18 µM. It also gave a GI50 [55] of 1.94 µM, a TGI [55] greater than 50 µM and a GI50 [56] of 1.59 µM. It also gave a TGI [56] greater than 50 µM, a GI50 [57] of 0.907 µM and a TGI [57] of 1.91 µM.
